Experimental data reported in BindingDB's records for doi:10.1016/s0960-894x(01)00246-3 (Rohm and Haas, 2001).
pEC50: −log10 of the molar value.

Biological target: Tubulin alpha/beta (Bos taurus)
Experiment: Inhibition of Bos taurus (bovine) brain tubulin polymerization

Compound | pEC50
COc1cccc([C@@H]2CC=CC[C@H]2[N+](=O)[O-])c1 [1-Methoxy-3-((1S,6R)-6-nitro-cyclohex-3-enyl)-benzene] | < 4.00
COc1ccc(-c2ccccc2C#N)c(OC)c1OC [2',3',4'-Trimethoxy-biphenyl-2-carbonitrile] | 4.30
COc1ccc(-c2ccc(OC)c(OC)c2OC)cc1 [2,3,4,4'-Tetramethoxy-biphenyl] | 5.20
COc1ccc(C2CC=CCC2C#N)c(OC)c1OC (centres undefined) [6-(2,3,4-Trimethoxy-phenyl)-cyclohex-3-enecarbonitrile] | < 4.00
O=[N+]([O-])[C@@H]1CC=CC[C@H]1c1ccccc1 [((1S,6R)-6-Nitro-cyclohex-3-enyl)-benzene] | < 4.00

Further lines, results first:

pEC50 | Compound
5.20 | COc1ccc(-c2ccc(OC)c(OC)c2OC)c(C)c1 [2,3,4,4'-Tetramethoxy-2'-methyl-biphenyl]
5.20 | COc1ccc(-c2ccc(OC)c(OC)c2OC)c([N+](=O)[O-])c1 [2,3,4,4'-Tetramethoxy-2'-nitro-biphenyl]
< 4.00 | COc1ccc(-c2ccccc2[N+](=O)[O-])c(OC)c1OC [2,3,4-Trimethoxy-2'-nitro-biphenyl]
5.20 | COc1ccc(-c2ccc(OC)c(OC)c2OC)c(C#N)c1 [4,2',3',4'-Tetramethoxy-biphenyl-2-carbonitrile]
